Measured values as given in publication PMC12298883, “Discovery of Cyclopentane-Based Phospholipids as Miltefosine Analogs with Superior Potency and Enhanced Selectivity Against Naegleria fowleri” (Pharmaceuticals, 2025).

What was measured:
[1] = system: N. fowleri trophozoites; experiment: Apoptosis/necrosis fluorescence staining assay; type: cell-based, Naegleria fowleri; conditions: at IC90, 48 h; apopxin green, 7-AAD red, cytocalcein blue
From the text: While apoptosis was previously believed to occur in multicellular metazoans, it was discovered that ancient forms of apoptotic-like cell death, which mimics some characteristics of apoptosis, can also trigger death in protozoa. In fact, apoptosis-like death is one of the programmed cell death molecular mechanisms in protozoa that also include necrosis. To further understand how compounds 2a, 3b and 3d trigger the death of N. fowleri in comparison to miltefosine, an evaluation of apoptosis and necrosis was conducted at IC90 of the tested compounds for 48 h. […] The diminished cytocalceine blue fluorescence, coupled with the surge in green fluorescence signifying apoptosis after treatment with the compounds (Figure 5), clearly indicates the reduction in viable cells and the initiation of programmed cell death. The absence of 7-AAD red fluorescence further reinforces the lack of detectable necrosis. This is a desirable trait for potential therapeutic agents, as necrosis, unlike apoptosis, can trigger inflammation due to the uncontrolled release of intracellular contents.
Figure 5 Apoptosis/necrosis assay. A fluorescence staining assay was performed using N. fowleri trophozoites treated with compounds 2a, 3b, 3d, and miltefosine (MF) as a reference; NC, negative controls with 0.1% DMSO treatment. Blue fluorescence representing living cells stained with cytocalcein (DAPI channel, Ex/Em = 405/450 nm). Green apopxin stains apoptotic cells to show green fluorescence (GFP channel, Ex/Em = 490/525 nm). 7-Amino Actinomycin D (7-AAD) stains late apoptotic cells and necrotic cells to show red fluorescence (RFP channel, Ex/Em = 550/650 nm). Images were representatives of cell populations in three individual experiments. Size bar: 10 µm.
Apoptosis/necrosis in treated N. fowleri trophozoites was assessed using the Apoptosis/Necrosis Detection Kit (Abcam, Cambridge, UK). N. fowleri trophozoites (5 × 10^4 cells/well) were seeded in a 96-well black/clear bottom plate (Thermo Fisher Scientific). Compounds 2a, 3b and 3d were treated to the cells at the concentrations of IC90 and incubated at 37 °C for 48 h. The apoptosis/necrosis assay was performed as described previously. Amoebae treated with 0.1% DMSO and miltefosine (IC90) were used as the negative controls (NC) and the positive controls, respectively.

[2] = system: N. fowleri trophozoites; experiment: TUNEL assay (DNA fragmentation); type: cell-based, Naegleria fowleri; conditions: at IC90, 48 h; PI counterstain
Procedure: To further confirm the apoptotic mode of cell death induced by compounds 2a, 3b and 3d in N. fowleri, a TUNEL assay was conducted. This assay detects DNA fragmentation, a hallmark of apoptosis, by incorporating fluorescent dUTP at DNA break sites. […] This difference could reflect variations in the specific molecular pathways targeted by each compound or differences in their cellular uptake or metabolism.
Figure 6 TUNEL assay. DNA fragmentation implying apoptosis was detected by TUNEL (GFP channel, (Ex/Em = 490/525 nm) in the amoebae treated with tested compounds. These amoebae were also counterstained with PI (RFP channel, Ex/Em = 550/650 nm). Miltefosine (MF) was included as a positive reference control. NC, negative controls with 0.1% DMSO treatment. Images were representatives of the cell population in three individual experiments. Size bar: 10 µm.
N. fowleri trophozoites (2 × 10^6 cells/well) were seeded in a 6-well plate (Thermo Fisher Scientific), treated with compounds 2a, 3b or 3d (IC90) and incubated at 37 °C for 48 h. The TUNEL assay was performed by using TUNEL Fluorescein Isothiocyanate (FITC) Assay Kit (Abcam, Cambridge, UK) as described previously. N. fowleri trophozoites treated with 0.01% DMSO was used as an NC. The amoeba treated with miltefosine (IC90) were used as a positive control.

[3] = system: C6 glial cells; experiment: Cytotoxicity assay for C6 cells (CellTiter-Blue); type: cell-based; conditions: C6 rat glial cells, viability; mean ± SD
Procedure: A viability assay was performed to evaluate the inhibitory activity of the tested compounds by determining their IC50 values against N. fowleri, using miltefosine as a reference drug. To assess the selectivity of the tested compounds relative to miltefosine, cytotoxic values that reduced the viability of C6 glial cells by 50% were established.
N. fowleri Carter NF69 strain (ATCC 30215; American Type Culture Collection, Manassas, VA, USA) was used. Amoeba trophozoites were cultured and maintained in Nelson’s medium containing 5% foetal bovine serum (FBS; Gibco, Grand Island, NY, USA) and 1% penicillin/streptomycin (P/S; Gibco, Grand Island, NY, USA) at 37 °C [56]. C6 rat glial cells (C6 cells; ATCC CCL-107) were cultured in Dulbecco’s Modified Eagle’s Medium (DMEM; Gibco, Grand Island, NY, USA) supplemented with 10% FBS (Gibco, Grand Island, NY, USA) and 1% P/S (Gibco, Grand Island, NY, USA) at 37 °C in a humidified incubator under 5% CO2 atmosphere.
The potential cytotoxicity of tested compounds and miltefosine in C6 cells was analysed. The cells were seeded in a 96-well microplate (Thermo Fisher Scientific; 2 × 10^4 cells/well), respectively, and incubated overnight until 80% confluent. Serially diluted tested compounds and miltefosine were treated to the cells as described above. Morphological changes of the cells were observed by microscopic examination. Cell viability was determined using the CellTiter-Blue® Cell viability assay (Promega, […], USA). The cytotoxic concentrations 50 (CC50) of tested compounds and miltefosine were calculated using GraphPad Prism 9.1.0 software (GraphPad Software, San Diego, CA, USA). The […] (SI) was determined by the ratio between CC50 and IC50. Cells treated with 0.1% DMSO, which was confirmed not to alter the morphology of the cells by microscopic examination, were used as controls with 100% cell viability.

Structure (SMILES) | mode of cell death (apoptosis/necrosis staining) [1] | DNA fragmentation (TUNEL green fluorescence) [2] | CC50 [3] [µM]
CCCCCCCCCCCCCO[C@@H]1CCC[C@H]1COP(=O)([O-])OCC[N+](C)(C)C [Compound 2a] | apoptosis-like death, rather than necrosis | intense green fluorescence, confirming DNA fragmentation | 
CCCCCCCCCCCCCOC[C@@H]1CCC[C@H]1OP(=O)([O-])OCC[N+](C)(C)C [Compound 3b] | apoptosis-like death, rather than necrosis | intense green fluorescence, confirming DNA fragmentation | 
CCCCCCCCCCCCCCCCCCCCCCOC[C@@H]1CCC[C@H]1OP(=O)([O-])OCC[N+](C)(C)C [Compound 3d] | apoptosis-like death, rather than necrosis | intense green fluorescence, confirming DNA fragmentation | 
CCCCCCCCCCCCCCCCOP(=O)([O-])OCC[N+](C)(C)C [Miltefosine] | apoptosis-like death, rather than necrosis | intense green fluorescence, confirming DNA fragmentation | 158.9 ± 1.49
